Where two headings read alike, the source gives them in different places.
Legend:
[1] = tested on: IAV H1N1 strain A/Puerto Rico/8/1934; assay: microbe, parasite or virus in culture; type: cell-based, influenza A virus; details: for IC50: Influenza A virus, H1N1, A549, 48 h
[2] = Cytotoxicity assay; type: cell-based, human; details: human, A549 cells
[3] = tested on: A549 cells; assay: Cytotoxicity assay; type: cell-based, human
[4] = tested on: dengue virus serotype 2 (DENV-2); details: cells treated 2 h before viral infection (-2 h); ref 15 (Oo et al.); cited from earlier work
[5] = tested on: IAV H1N1 strain A/Puerto Rico/8/1934; assay: microbe, parasite or virus in culture; type: cell-based, influenza A virus
[6] = tested on: IAV H1N1 strain A/Puerto Rico/8/1934; assay: microbe, parasite or virus in culture; type: cell-based, influenza A virus; remark: listed apart in the source
[7] = tested on: IAV H1N1 strain A/Puerto Rico/8/1934; type: cell-based, influenza A virus
[8] = tested on: IAV H1N1 strain A/Puerto Rico/8/1934; assay: microbe, parasite or virus in culture; type: cell-based, influenza A virus; remark: listed apart in the source
[9] = tested on: IAV H1N1 strain A/Puerto Rico/8/1934; assay: microbe, parasite or virus in culture; type: cell-based, influenza A virus; remark: listed apart in the source
[10] = tested on: host antiviral genes (IFITM-1, ISG15, ISG20, Mx-A, OAS-1, RSAD2, SHFL) in A549 cells; type: cell-based, human
[11] = after 48 h of incubation at concentrations of up to 1000 μM

Row | Compound | IC50 [1] | CC50 at 3 days [2] | cytotoxicity on A549 cells [3, 11] | suppression of DENV-2 RNA [4] | viral RNA reduction, post-entry assay ([5]; 25 μM) | IC50 ([5]; Influenza A virus, H1N1, A549, read-out: IC50 of diosmin, post-entry assay) | viral RNA reduction, attachment assay ([6]; 25 μM) | IC50 ([6]; Influenza A virus, H1N1, A549, read-out: IC50 of diosmin, attachment assay) | percentage of viral RNA copy numbers vs virus control [7] | reduction of viral RNA, entry assay ([8]; 25 μM) | IC50 ([8]; Influenza A virus, H1N1, A549, read-out: IC50 of diosmin, entry assay) | viral RNA reduction, virucidal assay ([9]; 25 μM) | IC50 ([9]; Influenza A virus, H1N1, A549, read-out: IC50 of diosmin, virucidal assay) | fold change of ISG15 expression (relative quantification) [10] | fold change of Mx-A expression (relative quantification) [10] | fold change of OAS-1 expression (relative quantification) [10] | fold change of SHFL expression (relative quantification) [10] | viral RNA levels [1] | cytotoxicity on A549 cells ([3]; after 48 h of incubation at concentrations of up to 5000 μM)
1 | O=c1c(O)c(-c2ccc(O)c(O)c2)oc2cc(O)ccc12 [Fisetin] | 143 ± 6.19 µM | 1190 ± 3.52 µM | no significant cytotoxicity | – | – | – | – | – | – | – | – | – | – | – | – | – | – | – | –
2 | COc1ccc(-c2cc(=O)c3c(O)cc(O[C@@H]4O[C@H](CO[C@@H]5O[C@@H](C)[C@H](O)[C@@H](O)[C@H]5O)[C@@H](O)[C@H](O)[C@H]4O)cc3o2)cc1O [Diosmin, diosmetin 7-O-rutinoside] | 2.91 ± 3.22 µM | 11300 µM | – | over 50% | exceeding 40% | 12.2 ± 1.55 µM | exceeding 40% | 13.3 ± 2.37 µM | significant reduction | under 40% | 39.2 ± 0.63 µM | exceeding 40% | 41.3 ± 4.56 µM | 6.774 | 2.163 | 2.035 | 4.148 | less than 20% | no significant cytotoxicity
3 | O=c1cc(-c2ccc(O)c(O)c2)oc2c([C@@H]3O[C@H](CO)[C@@H](O)[C@H](O)[C@H]3O)c(O)cc(O)c12 [Orientin] | 8.98 ± 2.03 µM | 1043 ± 3.41 µM | no significant cytotoxicity | – | – | – | – | – | – | – | – | – | – | – | – | – | – | – | –
